Tested on: MDA-MB-468 complex spheroids with HUVEC/MSC, viability
Assay: Anticancer human tumor MDA-MB-468 cell line growth inhibition;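 also: spheroids exposed to agents for seven days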;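 as to viability, T/C: 100% = DMSO vehicle control viability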
Conditions: for IC50: curve of first compound; for viability, T/C: stronger effect = lower value
How it was run: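 Multicellular complex spheroids of tumor cells with human endothelial cells (HUVEC) and mesenchymal stem cells; the LSD1 inhibitor iadademstat was combined with standard-of-care or investigational agents. Top concentration at or near clinical Cmax, half-log dilutions; final DMSO ≤0.25%.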

Compound: COc1cc(Nc2ncc3c(n2)-c2ccc(Cl)cc2C(c2c(F)cccc2OC)=NC3)ccc1C(=O)O + NC1CC1c1ccc(-c2cccc(O)c2)cc1
- IC50 (second compound 0.1 µM): < 3.16 nM
- IC50 (second compound 0.316 µM): < 3.16 nM
- IC50 (second compound 1 µM): < 3.16 nM
- IC50 (second compound 3.16 µM): < 3.16 nM
- IC50 (second compound 10 µM): < 3.16 nM
- viability, T/C (second compound 0.1 µM, first compound 0.00316 µM): 15.5%
- viability, T/C (second compound 0.1 µM, first compound 0.01 µM): 6.89%
- viability, T/C (second compound 0.1 µM, first compound 0.0316 µM): 6.01%
- viability, T/C (second compound 0.1 µM, first compound 0.1 µM): 4.91%
- viability, T/C (second compound 0.1 µM, first compound 0.316 µM): 3.38%
- viability, T/C (second compound 0.1 µM, first compound 1 µM): 2.48%
- viability, T/C (second compound 0.316 µM, first compound 0.00316 µM): 14.5%
- viability, T/C (second compound 0.316 µM, first compound 0.01 µM): 6.72%
- viability, T/C (second compound 0.316 µM, first compound 0.0316 µM): 5.86%
- viability, T/C (second compound 0.316 µM, first compound 0.1 µM): 5.06%
- viability, T/C (second compound 0.316 µM, first compound 0.316 µM): 3.01%
- viability, T/C (second compound 0.316 µM, first compound 1 µM): 2.59%
- viability, T/C (second compound 1 µM, first compound 0.00316 µM): 14.1%
- viability, T/C (second compound 1 µM, first compound 0.01 µM): 7.25%
- viability, T/C (second compound 1 µM, first compound 0.0316 µM): 5%
- viability, T/C (second compound 1 µM, first compound 0.1 µM): 4.96%
- viability, T/C (second compound 1 µM, first compound 0.316 µM): 2.88%
- viability, T/C (second compound 1 µM, first compound 1 µM): 1.8%
- viability, T/C (second compound 3.16 µM, first compound 0.00316 µM): 14.1%
- viability, T/C (second compound 3.16 µM, first compound 0.01 µM): 8%
- viability, T/C (second compound 3.16 µM, first compound 0.0316 µM): 5.68%
- viability, T/C (second compound 3.16 µM, first compound 0.1 µM): 5.16%
- viability, T/C (second compound 3.16 µM, first compound 0.316 µM): 3.35%
- viability, T/C (second compound 3.16 µM, first compound 1 µM): 2.58%
- viability, T/C (second compound 10 µM, first compound 0.00316 µM): 12.6%
- viability, T/C (second compound 10 µM, first compound 0.01 µM): 7.29%
- viability, T/C (second compound 10 µM, first compound 0.0316 µM): 6.71%
- viability, T/C (second compound 10 µM, first compound 0.1 µM): 5.57%
- viability, T/C (second compound 10 µM, first compound 0.316 µM): 3.87%
- viability, T/C (second compound 10 µM, first compound 1 µM): 4.35%

Compound: Nc1ccn(C2OC(CO)C(O)C2(F)F)c(=O)n1 (stereo not given) + NC1CCC(NC2CC2c2ccccc2)CC1
- IC50 (second compound 0.1 µM): < 0.949 nM
- IC50 (second compound 0.316 µM): < 0.949 nM
- IC50 (second compound 1 µM): < 0.949 nM
- IC50 (second compound 3.16 µM): < 0.949 nM
- IC50 (second compound 10 µM): < 0.949 nM
- viability, T/C (second compound 0.1 µM, first compound 0.000949 µM): 5.76%
- viability, T/C (second compound 0.1 µM, first compound 0.003 µM): 4.85%
- viability, T/C (second compound 0.1 µM, first compound 0.00949 µM): 5.57%
- viability, T/C (second compound 0.1 µM, first compound 0.03 µM): 4.54%
- viability, T/C (second compound 0.1 µM, first compound 0.0949 µM): 4.56%
- viability, T/C (second compound 0.1 µM, first compound 0.3 µM): 5.13%
- viability, T/C (second compound 0.316 µM, first compound 0.000949 µM): 5.33%
- viability, T/C (second compound 0.316 µM, first compound 0.003 µM): 5.22%
- viability, T/C (second compound 0.316 µM, first compound 0.00949 µM): 5.23%
- viability, T/C (second compound 0.316 µM, first compound 0.03 µM): 4.88%
- viability, T/C (second compound 0.316 µM, first compound 0.0949 µM): 5.47%
- viability, T/C (second compound 0.316 µM, first compound 0.3 µM): 5.64%
- viability, T/C (second compound 1 µM, first compound 0.000949 µM): 6.43%
- viability, T/C (second compound 1 µM, first compound 0.003 µM): 6.38%
- viability, T/C (second compound 1 µM, first compound 0.00949 µM): 5.41%
- viability, T/C (second compound 1 µM, first compound 0.03 µM): 4.34%
- viability, T/C (second compound 1 µM, first compound 0.0949 µM): 4.71%
- viability, T/C (second compound 1 µM, first compound 0.3 µM): 5.55%
- viability, T/C (second compound 3.16 µM, first compound 0.000949 µM): 6.65%
- viability, T/C (second compound 3.16 µM, first compound 0.003 µM): 5.98%
- viability, T/C (second compound 3.16 µM, first compound 0.00949 µM): 5.78%
- viability, T/C (second compound 3.16 µM, first compound 0.03 µM): 5.89%
- viability, T/C (second compound 3.16 µM, first compound 0.0949 µM): 4.69%
- viability, T/C (second compound 3.16 µM, first compound 0.3 µM): 5.66%
- viability, T/C (second compound 10 µM, first compound 0.000949 µM): 7.63%
- viability, T/C (second compound 10 µM, first compound 0.003 µM): 6.29%
- viability, T/C (second compound 10 µM, first compound 0.00949 µM): 6.52%
- viability, T/C (second compound 10 µM, first compound 0.03 µM): 7.12%
- viability, T/C (second compound 10 µM, first compound 0.0949 µM): 5.35%
- viability, T/C (second compound 10 µM, first compound 0.3 µM): 5.45%

Reference: PubChem BioAssay AID1918954 (Molecular Pharmacology Branch, DTP, NCI, 2023)
